Assay results from patent publication US7659394B2 (Pfizer Inc, priority 2004, dated 2010).

Columns and labels:
[1] = molecular target: T1, human seritonin transporter (Homo sapiens, UniProt P31645); assay: hSERT receptor binding ([125I]-RTI-55 radioligand binding); conditions: membranes of HEK-293 cells transfected with human seritonin transporter, IC50 converted to Ki by Cheng-Prusoff, read-out: SERT (Ki)
T1 construct: host or cells: HEK-293

[2] = molecular target: T2, human norepinephrine transporter (Homo sapiens, UniProt P23975); assay: hNET receptor binding ([125I]-RTI-55 radioligand binding); conditions: membranes of HEK-293 cells transfected with human norepinephrine transporter, IC50 converted to Ki by Cheng-Prusoff, read-out: hNET (Ki)
T2 construct: host or cells: HEK-293
How it was run: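 Membranes from HEK-293 cells transfected with human NET. Nonspecific binding defined with 10 μM desipramine, duplicates. IC50 by nonlinear regression, converted to Ki with Cheng-Prusoff.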

T2 sequence (P23975 whole entry): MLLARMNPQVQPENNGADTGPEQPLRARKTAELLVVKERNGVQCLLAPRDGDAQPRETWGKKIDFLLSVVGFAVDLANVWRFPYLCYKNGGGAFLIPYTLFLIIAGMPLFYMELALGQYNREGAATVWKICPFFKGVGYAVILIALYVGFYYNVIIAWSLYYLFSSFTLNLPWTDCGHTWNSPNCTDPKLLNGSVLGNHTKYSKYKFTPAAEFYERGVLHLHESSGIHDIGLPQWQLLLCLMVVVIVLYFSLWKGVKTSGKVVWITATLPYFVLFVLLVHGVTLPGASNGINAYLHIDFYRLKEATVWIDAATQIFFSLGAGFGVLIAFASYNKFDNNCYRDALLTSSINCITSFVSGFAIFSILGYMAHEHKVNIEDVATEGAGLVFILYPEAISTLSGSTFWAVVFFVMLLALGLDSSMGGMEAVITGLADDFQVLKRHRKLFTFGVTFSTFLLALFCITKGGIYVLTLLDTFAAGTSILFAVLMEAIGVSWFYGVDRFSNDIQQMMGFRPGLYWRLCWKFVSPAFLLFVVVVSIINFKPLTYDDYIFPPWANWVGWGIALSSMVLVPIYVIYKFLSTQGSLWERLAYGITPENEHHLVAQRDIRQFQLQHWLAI
T1 sequence (P31645 whole entry): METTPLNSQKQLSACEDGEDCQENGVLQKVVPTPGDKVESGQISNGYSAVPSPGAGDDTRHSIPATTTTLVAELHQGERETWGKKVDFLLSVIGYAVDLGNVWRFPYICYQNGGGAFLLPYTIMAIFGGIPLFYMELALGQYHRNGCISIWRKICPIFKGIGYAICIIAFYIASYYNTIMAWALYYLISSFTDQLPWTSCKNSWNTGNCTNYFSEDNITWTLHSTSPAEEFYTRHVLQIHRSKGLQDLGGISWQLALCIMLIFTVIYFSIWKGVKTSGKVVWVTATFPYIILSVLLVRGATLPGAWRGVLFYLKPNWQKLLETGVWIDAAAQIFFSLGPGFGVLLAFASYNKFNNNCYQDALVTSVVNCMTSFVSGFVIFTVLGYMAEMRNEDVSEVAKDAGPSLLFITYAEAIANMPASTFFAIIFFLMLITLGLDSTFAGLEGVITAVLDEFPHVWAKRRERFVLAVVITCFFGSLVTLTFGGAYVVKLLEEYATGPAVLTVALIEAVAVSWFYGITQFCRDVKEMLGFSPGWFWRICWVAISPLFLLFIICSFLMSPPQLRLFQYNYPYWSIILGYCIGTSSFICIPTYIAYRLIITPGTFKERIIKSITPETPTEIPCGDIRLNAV

Row | SMILES | Ki [1] [nM] | Ki [2] [nM]
1 | Fc1ccc(Oc2ncccc2O[C@@H](c2ccccc2)[C@@H]2CNCCO2)cc1 [Example 116, (2S)-2-[(S)-{[2-(4-fluorophenoxy)pyridin-3-yl]oxy}(phenyl)methyl]morpholine] | 1330 | 63
2 | CCOc1ccccc1OC(C1CC1)[C@@H]1CNCCO1 (stereo partly drawn) [Example 118, (2S)-2-[cyclopropyl(2-ethoxyphenoxy)methyl]morpholine] | ≥ 10000 | 1140
3 | Fc1ccc(O[C@@H](c2ccccc2)[C@@H]2CNCCO2)c(C2CC2)c1 [Example 119, (2S)-2-[(S)-(2-cyclopropyl-4-fluorophenoxy)(phenyl)methyl]morpholine] | 66 | 23
4 | Fc1cc(F)c(O[C@@H](c2ccccc2)[C@@H]2CNCCO2)c(C2CC2)c1 [Example 122, (2S)-2-[(S)-(2-cyclopropyl-4,6-difluorophenoxy)(phenyl)methyl]morpholine] | 44 | 11
5 | CCc1ncccc1O[C@@H](c1ccccc1)[C@@H]1CNCCO1 [Example 124, (2S)-2-[(S)-[(2-ethylpyridin-3-yl)oxy](phenyl)methyl]morpholine] | 346 | 30
6 | N#Cc1ccccc1O[C@@H](c1ccccn1)[C@@H]1CNCCO1 [Example 125, 2-[(S)-(2S)-morpholin-2-yl(pyridin-2-yl)methoxy]benzonitrile] | ≥ 10000 | 11
7 | CC(C)Oc1ccccc1O[C@@H](c1ccccn1)[C@@H]1CNCCO1 [Example 126, (2S)-2-[(S)-(2-isopropoxyphenoxy)(pyridin-2-yl)methyl]morpholine] | ≥ 10000 | 32
8 | CCCc1ccccc1O[C@@H](c1ccccn1)[C@@H]1CNCCO1 [Example 127, (2S)-2-[(S)-(2-propylphenoxy)(pyridin-2-yl)methyl]morpholine] | 6280 | 7
9 | c1ccc(Cc2ccccc2O[C@@H](c2ccccn2)[C@@H]2CNCCO2)cc1 [Example 128, (2S)-2-[(S)-(2-benzylphenoxy)(pyridin-2-yl)methyl]morpholine] | 3320 | 11
10 | FC(F)(F)Oc1ccccc1O[C@@H](c1ccccn1)[C@@H]1CNCCO1 [Example 129, (2S)-2-{(S)-pyridin-2-yl[2-(trifluoromethoxy)phenoxy]methyl}morpholine] | 4470 | 8
11 | Cc1ccc(C(C)C)c(O[C@@H](c2ccccn2)[C@@H]2CNCCO2)c1 [Example 130, (2S)-2-[(S)-(2-isopropyl-5-methylphenoxy)(pyridin-2-yl)methyl]morpholine] | 7060 | 457
12 | Cc1ncccc1O[C@@H](c1ccccc1)[C@@H]1CNCCO1 [Example 131, (2S)-2-[(S)-[(2-methylpyridin-3-yl)oxy](phenyl)methyl]morpholine] | 99 | 388
13 | c1ccc([C@H](Oc2ccccc2C2CCCC2)[C@@H]2CNCCO2)nc1 [Example 132, (2S)-2-[(S)-(2-cyclopentylphenoxy)(pyridin-2-yl)methyl]morpholine] | 6120 | 18
14 | FC(F)(F)c1ccccc1O[C@@H](c1ccccn1)[C@@H]1CNCCO1 [Example 133, (2S)-2-{(S)-pyridin-2-yl[2-(trifluoromethyl)phenoxy]methyl}morpholine] | 9060 | 1460
15 | CCCc1ncccc1O[C@@H](c1ccccc1)[C@@H]1CNCCO1 [Example 135, (2S)-2-{(S)-phenyl[(2-propylpyridin-3-yl)oxy]methyl}morpholine] | 4480 | 32
16 | CCOc1ncccc1O[C@@H](c1ccccc1)[C@@H]1CNCCO1 [Example 137, (2S)-2-[(S)-[(2-ethoxypyridin-3-yl)oxy](phenyl)methyl]morpholine] | 1810 | 9
17 | CCOc1ccccc1O[C@@H](c1ncccc1C)[C@@H]1CNCCO1 [Example 138, (2S)-2-[(S)-(2-ethoxyphenoxy)(3-methylpyridin-2-yl)methyl]morpholine] | 3820 | 1610
18 | Cc1cccnc1[C@H](Oc1ccccc1OC(F)(F)F)[C@@H]1CNCCO1 [Example 139, (2S)-2-{(S)-(3-methylpyridin-2-yl)[2-(trifluoromethoxy)phenoxy]methyl}morpholine] | 1140 | 1190
19 | COc1cccc([C@H](Oc2ccccc2OC(C)C)[C@@H]2CNCCO2)n1 [Example 140, (2S)-2-[(S)-(2-isopropoxyphenoxy)(6-methoxypyridin-2-yl)methyl]morpholine] | 763 | 71
20 | CCc1ccnc([C@H](Oc2c(F)cccc2OC)[C@@H]2CNCCO2)c1 [Example 141, (2S)-2-[(S)-(4-ethylpyridin-2-yl) (2-fluoro-6-methoxyphenoxy)methyl]morpholine] | 2740 | 40
21 | CCOc1ccccc1O[C@@H](c1cc(CC)ccn1)[C@@H]1CNCCO1 [Example 142, (2S)-2-[(S)-(2-ethoxyphenoxy)(4-ethylpyridin-2-yl)methyl]morpholine] | 4540 | 49
22 | CCOc1ncccc1O[C@@H](C)[C@@H]1CNCCO1 [Example 144, (2S)-2-{(1S)-1-[(2-ethoxypyridin-3-yl)oxy]ethyl}morpholine] | 7220 | 304
23 | FCCCc1ccccc1O[C@@H](c1ccccc1)[C@@H]1CNCCO1 [Example 145, (2S)-2-[(S)-[2-(3-fluoropropyl)phenoxy](phenyl)methyl]morpholine] | 4140 | 45
24 | Fc1cccc(F)c1O[C@H](C1=CCCC1)[C@@H]1CNCCO1 [Example 147, (2S)-2-[(R)-cyclopent-1-en-1-yl(2,6-difluorophenoxy)methyl]morpholine] | 2530 | 2570
25 | COc1cccc(OC)c1OC(c1ccccc1)[C@@H]1CNCCO1 (stereo partly drawn) [Example 148, (2S)-2-[(2,6-dimethoxyphenoxy)(phenyl)methyl]morpholine] | ≥ 10000 | 69

Next, values leading:

Row | Ki [1] [nM] | Ki [2] [nM] | SMILES
26 | 2310 | 9 | CCOc1ncccc1OC(CC(C)C)[C@@H]1CNCCO1 (stereo partly drawn) [Example 149, (2S)-2-{1-[(2-ethoxypyridin-3-yl)oxy]-3-methylbutyl}morpholine]
27 | 2030 | 20 | c1ccc([C@H](Oc2cccnc2C2CC2)[C@@H]2CNCCO2)cc1 [Example 150, (2S)-2-[(S)-[(2-cyclopropylpyridin-3-yl)oxy](phenyl)methyl]morpholine]
28 | 3290 | 4 | CC(Oc1ccccc1Oc1ccc(F)cc1)[C@@H]1CNCCO1 (stereo partly drawn) [Example 151, (2S)-2-{1-[2-(4-fluorophenoxy)phenoxy]ethyl}morpholine]
29 | 1940 | 9 | Fc1ccc(Cl)c(O[C@@H](c2ccccn2)[C@@H]2CNCCO2)c1 [Example 152, (2S)-2-[(S)-(2-chloro-5-fluorophenoxy)(pyridin-2-yl)methyl]morpholine]
30 | 6320 | 14 | c1ccc(-c2ccccc2O[C@@H](c2ccccn2)[C@@H]2CNCCO2)cc1 [Example 153, (2S)-2-[(S)-(biphenyl-2-yloxy)(pyridin-2-yl)methyl]morpholine]
31 | 2520 | 12 | c1ccc([C@H](Oc2ccccc2C2CC2)[C@@H]2CNCCO2)nc1 [Example 154, (2S)-2-[(S)-(2-cyclopropylphenoxy)(pyridin-2-yl)methyl]morpholine]
32 | 768 | 5 | Brc1ccccc1O[C@@H](c1ccccn1)[C@@H]1CNCCO1 [Example 155, (2S)-2-[(S)-(2-bromophenoxy)(pyridin-2-yl)methyl]morpholine]
33 | 801 | 14 | FCc1ccccc1OC(c1ccccc1)[C@@H]1CNCCO1 (stereo partly drawn) [Example 156, (2S)-2-[[2-(fluoromethyl)phenoxy](phenyl)methyl]morpholine]
34 | 2570 | 4 | CCOc1cccc(F)c1OC(c1ccccc1)[C@@H]1CNCCO1 (stereo partly drawn) [Example 157, (2S)-2-[(2-ethoxy-6-fluorophenoxy)(phenyl)methyl]morpholine]
35 | ≥ 10000 | 6 | COc1cccc(F)c1O[C@@H](c1ccccn1)[C@@H]1CNCCO1 [Example 158, (2S)-2-[(S)-(2-fluoro-6-methoxyphenoxy)(pyridin-2-yl)methyl]morpholine]
36 | 7370 | 7 | CCOc1cccc(F)c1O[C@@H](c1ccccn1)[C@@H]1CNCCO1 [Example 159, (2S)-2-[(S)-(2-ethoxy-6-fluorophenoxy)(pyridin-2-yl)methyl]morpholine]
37 | 6500 | 6 | Fc1cccc(F)c1O[C@@H](c1ccccn1)[C@@H]1CNCCO1 [Example 160, (2S)-2-[(S)-(2,6-difluorophenoxy)(pyridin-2-yl)methyl]morpholine]
38 | 3880 | 5 | FCCCOc1ccccc1O[C@@H](c1ccccc1)[C@@H]1CNCCO1 [Example 161, (2S)-2-[(S)-[2-(3-fluoropropoxy)phenoxy](phenyl)methyl]morpholine]
39 | 263 | 5 | CCOc1ncccc1O[C@@H](CC1CCCCC1)[C@@H]1CNCCO1 [Example 162, (2S)-2-{(1S)-2-cyclohexyl-1-[(2-ethoxypyridin-3-yl)oxy]ethyl}morpholine]
40 | 446 | 13 | Fc1cccc(F)c1OC(c1cccc2c1OCC2)[C@@H]1CNCCO1 (stereo partly drawn) [Example 163, (2S)-2-[(2,6-difluorophenoxy)(2,3-dihydro-1-benzofuran-7-yl)methyl]morpholine]
41 | 3070 | 13 | Fc1ccc(C2CC2)c(O[C@@H](c2ccccn2)[C@@H]2CNCCO2)c1 [Example 164, (2S)-2-[(S)-(2-cyclopropyl-5-fluorophenoxy)(pyridin-2-yl)methyl]morpholine]
42 | 351 | 4 | CC(C)Oc1cccc(F)c1O[C@@H](c1ccccc1)[C@@H]1CNCCO1 [Example 165, (2S)-2-[(S)-(2-fluoro-6-isopropoxyphenoxy)(phenyl)methyl]morpholine]
